Laboratory results from US20190282501A1, “HYDROALCOHOLIC FOAM FORMULATIONS OF NAFTIFINE” (priority 2016, published 2019).
Structures can show the parent of a compound that is named as a salt. Where two headings read alike, the source gives them in different places.

Key:
[1] = Description: To generate a foam composition that is capable of maintaining the high solubility of naftifine HCl without needing to add in surfactants, the solubility of the API with various excipients was tested. Naftifine hydrochloride was combined with different solvents to identify which solvents are able to solubilize the API. The objective of this study was to determine which solvents can be useful in the development of formulations where the API is soluble. The objective of this study was not to determine the maximal solubility of the API in the tested solvents.
To prepare the mixtures, the API was added at a 1% w/w concentration to each solvent at room temperature under mixing. Solubility at room temperature was then assessed after 24 hours by determining the presence of API crystals using microscopic observation at ×200 magnification under polarized light. The mixture was then heated to about 80° C. for 10 minutes and mixed. Solubility at 80° C. was assessed by visual observation. The mixture was then cooled to room temperature and solubility was assessed after 24 hours by determining the presence of API crystals using microscopic evaluation at ×200 magnification under polarized light.
The first column in Table 5 relates to the solubility at room temperature before heating to 80° C. The second column relates to the solubility at 80° C. as observed visually. The third column relates to the solubility after the mixture has been heated to 80° C. and cooled down to room temperature.

[2] = after 3m and after 6m at 25° C., 30° C. and 40° C.; stated below Table 6B (Formulation D)
Description: The amount of active agent present is analyzed in foam expelled from various pressurized canisters containing foam formulations using HPLC. Analysis is carried out at zero time and at appropriate time intervals thereafter. The canisters are stored in controlled temperature incubators at one or more of 5° C., at 25° C., at, 40° C. and at 50° C. At appropriate time intervals canisters are removed and the amount of active agent in the foam sample is measured.

[3] = in Capric caprylic triglycerides

With `CN(C/C=C/c1ccccc1)Cc1cccc2ccccc12` [naftifine hydrochloride, (E)-N-methyl-N-(1-naphthyl-methyl)-3-phenyl-2-propen-l-amine hydrochloride] the “Dissolution in hydrophobic solvents” value ([1]; hydrophobic solvents, even under heating) was “did not dissolve”, the “Max. Solubility at RT after heating at 80° C.” value (from here on “Max. Solubility at RT”) [1, 3] was <1% and the “Maximum Solubility at 80° C.” value [1, 3] was <1%. The “Maximum Solubility at RT” value [1, 3] was <1%, the “Max. Solubility at RT” value ([1]; in Castor oil) was <1% and the “Maximum Solubility at 80° C.” value ([1]; in Castor oil) was <1%. For the same molecule, the “Maximum Solubility at RT” value ([1]; in Castor oil) was <1%, the “Max. Solubility at RT” value ([1]; in Cyclomethicone) was <1% and the “Maximum Solubility at 80° C.” value ([1]; in Cyclomethicone) was <1%. The “Maximum Solubility at RT” value ([1]; in Cyclomethicone) was <1%, the “Max. Solubility at RT” value ([1]; in Diethyl sebacate) was <1% and the “Maximum Solubility at 80° C.” value ([1]; in Diethyl sebacate) was <1%. The “Maximum Solubility at RT” value ([1]; in Diethyl sebacate) was <1%, the “Max. Solubility at RT” value ([1]; in Diisopropyl adipate) was <1% and the “Maximum Solubility at 80° C.” value ([1]; in Diisopropyl adipate) was <1%. The “Maximum Solubility at RT” value ([1]; in Diisopropyl adipate) was <1%, the “Max. Solubility at RT” value ([1]; in Dimethyl isosorbide) was <1% and the “Maximum Solubility at 80° C.” value ([1]; in Dimethyl isosorbide) was <1%. For the same molecule, the “Maximum Solubility at RT” value ([1]; in Dimethyl isosorbide) was <1%, the “Max. Solubility at RT” value ([1]; in Dimethyl sulfoxide) was >8% and the “Maximum Solubility at 80° C.” value ([1]; in Dimethyl sulfoxide) was >8%. For the same molecule, the “Maximum Solubility at RT” value ([1]; in Dimethyl sulfoxide) was ~2%, the “Maximum Solubility at 80° C.” value ([1]; in Ethanol 95%) was >8% and the “Maximum Solubility at RT” value ([1]; in Ethanol 95%) was ~4%. The “Max. Solubility at RT” value ([1]; in Ethanol 95%, hydrochloride) was >8%, the “Max. Solubility at RT” value ([1]; in Ethanol 95%, listed as naftifine HCl, hydrochloride) was “higher than 8%” and the “Max. Solubility at RT” value ([1]; in Glycerin) was ~1%. For the same molecule, the “Maximum Solubility at 80° C.” value ([1]; in Glycerin) was ~1%, the “Maximum Solubility at RT” value ([1]; in Glycerin) was <1% and the “Max. Solubility at RT” value ([1]; in Glycofurol) was ~1%. For the same molecule, the “Maximum Solubility at 80° C.” value ([1]; in Glycofurol) was ~1%, the “Maximum Solubility at RT” value ([1]; in Glycofurol) was <1% and the “Max. Solubility at RT” value ([1]; in Hexylene glycol) was ~1%. For the same molecule, the “Maximum Solubility at 80° C.” value ([1]; in Hexylene glycol) was ~1%, the “Maximum Solubility at RT” value ([1]; in Hexylene glycol) was <1% and the “Max. Solubility at RT” value ([1]; in Isopropyl alcohol) was ~2%. The “Maximum Solubility at 80° C.” value ([1]; in Isopropyl alcohol) was ~2%, the “Maximum Solubility at RT” value ([1]; in Isopropyl alcohol) was <1% and the “Max. Solubility at RT” value ([1]; in Isopropyl myristate) was <1%. For the same molecule, the “Maximum Solubility at 80° C.” value ([1]; in Isopropyl myristate) was <1%, the “Maximum Solubility at RT” value ([1]; in Isopropyl myristate) was <1% and the “Max. Solubility at RT” value ([1]; in Isostearic acid) was <1%. The “Maximum Solubility at 80° C.” value ([1]; in Isostearic acid) was <1%, the “Maximum Solubility at RT” value ([1]; in Isostearic acid) was <1% and the “Max. Solubility at RT” value ([1]; in Mineral oil light) was <1%. For the same molecule, the “Maximum Solubility at 80° C.” value ([1]; in Mineral oil light) was <1%, the “Maximum Solubility at RT” value ([1]; in Mineral oil light) was <1% and the “Max. Solubility at RT” value ([1]; in Octyldodecanol) was <1%. The “Maximum Solubility at 80° C.” value ([1]; in Octyldodecanol) was <1%, the “Maximum Solubility at RT” value ([1]; in Octyldodecanol) was <1% and the “Max. Solubility at RT” value ([1]; in Oleic acid) was <1%. For the same molecule, the “Maximum Solubility at 80° C.” value ([1]; in Oleic acid) was <1%, the “Maximum Solubility at RT” value ([1]; in Oleic acid) was <1% and the “Max. Solubility at RT” value ([1]; in Oleyl alcohol) was <1%. For the same molecule, the “Maximum Solubility at 80° C.” value ([1]; in Oleyl alcohol) was <1%, the “Maximum Solubility at RT” value ([1]; in Oleyl alcohol) was <1% and the “Max. Solubility at RT” value ([1]; in Olive oil) was <1%. For the same molecule, the “Maximum Solubility at 80° C.” value ([1]; in Olive oil) was <1%, the “Maximum Solubility at RT” value ([1]; in Olive oil) was <1% and the “Max. Solubility at RT” value ([1]; in PPG-15 stearyl ether) was <1%. For the same molecule, the “Maximum Solubility at 80° C.” value ([1]; in PPG-15 stearyl ether) was <1%, the “Maximum Solubility at RT” value ([1]; in PPG-15 stearyl ether) was <1% and the “Max. Solubility at RT” value ([1]; in Polyethylene glycol 200) was ~3%. The “Maximum Solubility at 80° C.” value ([1]; in Polyethylene glycol 200) was ~6%, the “Maximum Solubility at RT” value ([1]; in Polyethylene glycol 200) was <1% and the “Max. Solubility at RT” value ([1]; in Polyethylene glycol 400) was <1%. For the same molecule, the “Maximum Solubility at 80° C.” value ([1]; in Polyethylene glycol 400) was <1%, the “Maximum Solubility at RT” value ([1]; in Polyethylene glycol 400) was <1% and the “Max. Solubility at RT” value ([1]; in Propylene glycol) was >8%. The “Maximum Solubility at 80° C.” value ([1]; in Propylene glycol) was >8%, the “Maximum Solubility at RT” value ([1]; in Propylene glycol) was <1% and the “Max. Solubility at RT” value ([1]; in Sodium pyroglutamic acid) was <1%. The “Maximum Solubility at 80° C.” value ([1]; in Sodium pyroglutamic acid) was <1%, the “Maximum Solubility at RT” value ([1]; in Sodium pyroglutamic acid) was <1% and the “Max. Solubility at RT” value ([1]; in Soybean oil) was <1%. For the same molecule, the “Maximum Solubility at 80° C.” value ([1]; in Soybean oil) was <1%, the “Maximum Solubility at RT” value ([1]; in Soybean oil) was <1% and the “Max. Solubility at RT” value ([1]; in Transcutol) was ~2%. For the same molecule, the “Maximum Solubility at 80° C.” value ([1]; in Transcutol) was ~2%, the “Maximum Solubility at RT” value ([1]; in Transcutol) was <1% and the “Max. Solubility at RT” value ([1]; in Water) was ~1%. The “Maximum Solubility at 80° C.” value ([1]; in Water) was ~1%, the “Maximum Solubility at RT” value ([1]; in Water) was <1% and the “Dissolution in hydrophilic solvents” value ([1]; propylene glycol (after heating), ethanol, dimethyl sulfoxide and polyethylene glycol 200 (after heating)) was “dissolved well”. For the same molecule, the Stability of naftifine [2] was “stable”.
